IC50 and Change data for 26 compounds are collected here from ChEMBL document CHEMBL1152019, “A series of conformationally and sterically constrained analogs of N-phenyl-N-aralkylurea ACAT inhibitors” (Bioorg Med Chem Lett, 1995).

One test deals with O-acyltransferase (Oryctolagus cuniculus, UniProt G1SFD9). Put plainly: In vitro inhibitory activity against ACAT was determined in rabbit intestinal microsome from cholesterol-fed animals. The test is classed as microsomes, Intestine.
The subject of test [1] is Rattus norvegicus. Put plainly: In vivo percent change of total cholesterol compared to control at a dose 30 mg/Kg in rats fed with cholic acid (0.5%), cholesterol (1.5%) and peanut oil (5.5%). The test is classed as functional.
For test [2], the system named is Rattus norvegicus. Put plainly: Compound was evaluated in vivo for percent change of total cholesterol compared to control at a dose 30 mg/Kg in rats fed with cholic acid (0.5%), cholesterol (1.5%) and peanut oil (5.5%); No change. It counts as functional, organism-based.

pIC50: −log10 of the molar value. The source made the active and inactive calls. The rule behind the calls is not given here.

Chain of O-acyltransferase (G1SFD9 1-524): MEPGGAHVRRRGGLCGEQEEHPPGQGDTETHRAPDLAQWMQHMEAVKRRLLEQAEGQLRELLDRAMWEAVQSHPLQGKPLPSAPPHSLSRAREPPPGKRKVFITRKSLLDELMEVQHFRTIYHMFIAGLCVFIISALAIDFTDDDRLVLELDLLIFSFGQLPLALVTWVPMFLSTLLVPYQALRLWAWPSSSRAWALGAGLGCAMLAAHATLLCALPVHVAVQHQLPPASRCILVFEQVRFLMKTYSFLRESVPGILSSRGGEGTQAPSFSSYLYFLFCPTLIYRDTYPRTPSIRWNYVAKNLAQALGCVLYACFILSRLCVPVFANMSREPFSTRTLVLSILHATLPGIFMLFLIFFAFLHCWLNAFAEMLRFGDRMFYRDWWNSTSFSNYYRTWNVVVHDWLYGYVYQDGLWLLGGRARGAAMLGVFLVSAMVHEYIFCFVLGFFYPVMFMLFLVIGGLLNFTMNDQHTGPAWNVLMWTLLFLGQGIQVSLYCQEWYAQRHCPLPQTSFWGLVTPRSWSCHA

In turn, `CC(C)c1cccc(C(C)C)c1NC(=O)NCC1=CCCc2ccccc21` showed a negative-log IC50 (pIC50) on O-acyltransferase of 7.54. The Change in the test on Rattus norvegicus [1] is -33%.

On O-acyltransferase, `CC(C)c1cccc(C(C)C)c1NC(=O)NCC1c2ccccc2Oc2ccccc21` showed a pIC50 of 7.38. In addition, the Change in the test with Rattus norvegicus [1] was -25%.

On to `CC(C)c1cccc(C(C)C)c1NC(=O)NC1CCCc2ccccc21` (stereo unspecified), for which the Change entry in the test with Rattus norvegicus [2] was “inactive”.

Take `CC(C)c1cccc(C(C)C)c1NC(=O)NCCc1ccc2ccccc2c1`: the Change in the test with Rattus norvegicus [1] is given as -54%.

As to `CC(C)c1cccc(C(C)C)c1NC(=O)NC1Cc2ccccc2C1`, the negative logarithm of the IC50 (pIC50) against O-acyltransferase is 7.02. Further, the Change with Rattus norvegicus [1] is -8%.

For `CC(C)c1cccc(C(C)C)c1NC(=O)NC1CCc2ccccc21` (stereo unspecified), on O-acyltransferase, the negative-log IC50 (pIC50) was 6.04. In addition, the Change result in the test on Rattus norvegicus [2] was “inactive”.

As to `CC(C)c1cccc(C(C)C)c1NC(=O)NCC1(c2ccccc2)CCCC1`, in the test with Rattus norvegicus [1], the Change is on record as -70%.

`CC(C)c1cccc(C(C)C)c1NC(=O)NCc1cccc2ccccc12` had a pIC50 against O-acyltransferase of 7.47. Also, the Change in the test on Rattus norvegicus [1] was -53%.

In turn, `CC(C)c1cccc(C(C)C)c1NC(=O)NCC1(O)CCCc2ccccc21` (stereo unspecified) had a pIC50 at O-acyltransferase of 6.46. The Change result with Rattus norvegicus [2] is “inactive”.

As to `CC(C)c1cccc(C(C)C)c1NC(=O)NOC(c1ccccc1)c1ccccc1`, the Change with Rattus norvegicus [1] is given as -67%.

On O-acyltransferase, `CC(C)c1cccc(C(C)C)c1NC(=O)NCC1CCc2ccccc21` (stereo unspecified) showed a pIC50 of 7.57. The Change in the test with Rattus norvegicus [1] is on record as -49%.

For `CC(C)c1cccc(C(C)C)c1NC(=O)NOC(c1ccccc1)(c1ccccc1)c1ccccc1`, the Change in the test on Rattus norvegicus [1] is -30%.

Regarding `CC(C)c1cccc(C(C)C)c1NC(=O)NC1CCc2ccccc2C1` (stereo unspecified), at O-acyltransferase, the pIC50 is 7.20. Besides, the Change in the test on Rattus norvegicus [1] is listed as -26%.

Compound `CC(C)c1cccc(C(C)C)c1NC(=O)NC1COc2ccccc2C1` (stereo unspecified) had a negative-log IC50 (pIC50) against O-acyltransferase of 6.96. In the test on Rattus norvegicus [1], the Change is -20%.

Regarding `CC(C)c1cccc(C(C)C)c1NC(=O)NCC1(c2ccc(N(C)C)cc2)CCCC1` [NEVANIMIBE], the Change with Rattus norvegicus [1] is listed as -76%.

For `CC(C)c1cccc(C(C)C)c1NC(=O)NCC1c2ccccc2-c2ccccc21`, in the test with Rattus norvegicus [1], the Change was -41%.

As for `CC(C)c1cccc(C(C)C)c1NC(=O)NCCc1cccc2ccccc12`, the Change in the test with Rattus norvegicus [1] is on record as -32%.

As for `CC(C)c1cccc(C(C)C)c1NC(=O)NCC(c1ccccc1)c1ccccc1`, the Change in the test with Rattus norvegicus [1] is listed as -73%.

On O-acyltransferase, `CC(C)c1cccc(C(C)C)c1NC(=O)NCC(c1ccccc1)(c1ccccc1)c1ccccc1` showed a pIC50 of 7.04. In addition, the Change in the test on Rattus norvegicus [1] is -68%.

For `CC(C)c1cccc(C(C)C)c1NC(=O)NCC1CCCc2ccccc21` (stereo unspecified), on O-acyltransferase, the negative-log IC50 (pIC50) was 7.44. The Change in the test on Rattus norvegicus [1] is reported as -47%.

For `COc1cccc2c1CCC(NC(=O)Nc1c(C(C)C)cccc1C(C)C)C2` (stereo unspecified), on O-acyltransferase, the pIC50 was 7.77. The Change in the test with Rattus norvegicus [1] is recorded as -39%.

For `CC(C)c1cccc(C(C)C)c1NC(=O)NCCc1ccccc1`, the Change in the test with Rattus norvegicus [1] was -16%.

With `CC(C)c1cccc(C(C)C)c1NC(=O)NOCc1cccc2ccccc12`, in the test on Rattus norvegicus [1], the Change is recorded as -32%.

Compound `CC(C)c1cccc(C(C)C)c1NC(=O)NC1CCc2ccccc2C12CCCC2` (stereo unspecified) showed a pIC50 at O-acyltransferase of 7.51. The Change with Rattus norvegicus [1] is given as -49%.

Consider `CC(C)c1cccc(C(C)C)c1NC(=O)NCC1(c2ccccc2)Cc2ccccc2C1`, for which the negative-log IC50 (pIC50) at O-acyltransferase was 7.57. In addition, in the test on Rattus norvegicus [1], the Change was -67%.

As for `CC(C)c1cccc(C(C)C)c1NC(=O)NCC1(O)CCc2ccccc21` (stereo unspecified), the negative logarithm of the IC50 (pIC50) at O-acyltransferase was 6.09. In the test on Rattus norvegicus [2], the Change entry was “inactive”.
